Reference: ChEMBL document CHEMBL6109169, “1,6-Naphthridine Compounds as SMARCA2 Inhibitors for Treating Non-small Cell Lung Cancer” (ACS Med Chem Lett, 2025)

Biological target: SWI/SNF-related matrix-associated actin-dependent regulator of chromatin subfamily A member 2 (Homo sapiens, UniProt P51531)
Assay: Inhibition of N-terminal hexa-histidine-tagged truncated human SMARCA2 (470 to 1590 residues) extracted from Sf9 insect cells using poly(dA-dT) linear dsDNA as substrate preincubated for 30 mins followed by substrate/ATP addition measured after 180 mins by ADP-Glo assay
Assay type: cell-free

SWI/SNF-related matrix-associated actin-dependent regulator of chromatin subfamily A member 2, sequence (P51531 whole entry, the tested form may be a part): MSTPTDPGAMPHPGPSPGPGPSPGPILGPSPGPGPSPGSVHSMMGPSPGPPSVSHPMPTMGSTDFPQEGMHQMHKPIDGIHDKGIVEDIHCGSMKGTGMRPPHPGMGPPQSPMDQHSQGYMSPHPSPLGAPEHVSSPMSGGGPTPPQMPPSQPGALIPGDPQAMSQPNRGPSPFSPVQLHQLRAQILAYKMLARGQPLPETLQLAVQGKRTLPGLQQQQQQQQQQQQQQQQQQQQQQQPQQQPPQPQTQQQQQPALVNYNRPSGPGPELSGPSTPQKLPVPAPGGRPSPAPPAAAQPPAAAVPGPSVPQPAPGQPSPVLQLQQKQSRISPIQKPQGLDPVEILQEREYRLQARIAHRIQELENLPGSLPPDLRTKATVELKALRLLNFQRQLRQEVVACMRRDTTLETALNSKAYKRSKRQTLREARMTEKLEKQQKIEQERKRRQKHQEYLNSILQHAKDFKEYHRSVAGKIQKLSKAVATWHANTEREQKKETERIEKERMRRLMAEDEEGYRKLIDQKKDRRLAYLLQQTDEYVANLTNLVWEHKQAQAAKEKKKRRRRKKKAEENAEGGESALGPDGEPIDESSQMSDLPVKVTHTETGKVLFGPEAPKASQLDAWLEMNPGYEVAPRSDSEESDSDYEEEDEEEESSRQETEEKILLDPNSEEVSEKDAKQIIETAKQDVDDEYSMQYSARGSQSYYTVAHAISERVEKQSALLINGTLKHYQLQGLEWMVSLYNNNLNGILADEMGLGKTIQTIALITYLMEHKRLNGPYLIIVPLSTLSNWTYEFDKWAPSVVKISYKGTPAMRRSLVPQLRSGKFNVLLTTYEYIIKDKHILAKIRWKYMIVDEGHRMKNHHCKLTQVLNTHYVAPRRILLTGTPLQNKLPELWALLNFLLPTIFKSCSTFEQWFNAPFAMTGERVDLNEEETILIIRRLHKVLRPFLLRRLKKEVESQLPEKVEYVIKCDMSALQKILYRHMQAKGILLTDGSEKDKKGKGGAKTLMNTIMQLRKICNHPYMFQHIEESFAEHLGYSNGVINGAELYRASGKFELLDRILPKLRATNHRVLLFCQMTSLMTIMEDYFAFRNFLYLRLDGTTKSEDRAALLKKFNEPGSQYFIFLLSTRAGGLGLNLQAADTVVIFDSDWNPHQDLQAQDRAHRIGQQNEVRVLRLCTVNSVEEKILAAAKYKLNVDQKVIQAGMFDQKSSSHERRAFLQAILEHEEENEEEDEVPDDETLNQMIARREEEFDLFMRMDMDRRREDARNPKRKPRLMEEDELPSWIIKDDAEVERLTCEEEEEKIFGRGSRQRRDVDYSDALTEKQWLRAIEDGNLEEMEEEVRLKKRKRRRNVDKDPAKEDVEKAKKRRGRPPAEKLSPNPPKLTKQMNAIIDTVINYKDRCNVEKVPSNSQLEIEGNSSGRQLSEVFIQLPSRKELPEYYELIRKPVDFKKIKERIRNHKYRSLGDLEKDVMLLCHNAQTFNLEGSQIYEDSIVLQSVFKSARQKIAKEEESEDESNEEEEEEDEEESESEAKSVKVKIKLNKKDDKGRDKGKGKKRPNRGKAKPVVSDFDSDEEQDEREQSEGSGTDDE

| SMILES | IC50 [nM] |
| --- | --- |
| C[C@@H]1CN(c2cccc(-c3ccc4cnc(CNC(=O)c5cc(Cl)c6c(c5)N(S(C)(=O)=O)CC6)cc4n3)n2)C[C@H](C)O1 | 2.27 |
| CCS(=O)(=O)N1CCc2ccc(C(=O)NCc3cc4nc(-c5cccc(N6C[C@@H](C)O[C@@H](C)C6)n5)ccc4cn3)cc21 | 3.6 |
| C=CCS(=O)(=O)N1CCc2ccc(C(=O)NCc3cc4nc(-c5cccc(N6C[C@@H](C)O[C@@H](C)C6)n5)ccc4cn3)cc21 | 8.14 |
